Measured values reported in PubChem BioAssay AID248 (DTP/NCI, 2004).
Inconclusive results and toxic doses are left out. No stated cut-off is given here; in the data, active means T/C of 150% or more; inactive means T/C below 125%.

System: L1210 leukemia ip in BDF1 mice, survival T/C
Test: NCI In Vivo Anticancer Drug Screen. Data for tumor model L1210 Leukemia (intraperitoneal) in B6D2F1 (BDF1) mice
Details: endpoint: mean survival time, higher = longer survival
Method in brief: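 Read-out is survival time, reported as the treated-group measurement over the vehicle-control measurement.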

[1] = dose: 50.0 mg/kg/injection, schedule: Q01DX009 (ip), vehicle: Klucel (hydroxypropylcellulose) (HPC)
[2] = dose: 100.0 mg/kg/injection, schedule: Q01DX009 (ip), vehicle: Klucel (hydroxypropylcellulose) (HPC)
[3] = dose: 100.0 mg/kg/injection, schedule: Q04DX003 (ip), vehicle: Klucel (hydroxypropylcellulose) (HPC)
[4] = dose: 200.0 mg/kg/injection, schedule: Q04DX003 (ip), vehicle: Klucel (hydroxypropylcellulose) (HPC)
[5] = dose: 100.0 mg/kg/injection, schedule: Q04DX002 (ip), vehicle: Klucel (hydroxypropylcellulose) (HPC)
[6] = dose: 100.0 mg/kg/injection, schedule: Q01DX001 (ip), vehicle: carboxymethylcellulose (CMC)
[7] = dose: 200.0 mg/kg/injection, schedule: Q01DX001 (ip), vehicle: carboxymethylcellulose (CMC)
[8] = dose: 400.0 mg/kg/injection, schedule: Q01DX001 (ip), vehicle: carboxymethylcellulose (CMC)
[9] = dose: 50.0 mg/kg/injection, schedule: Q01DX001 (ip), vehicle: carboxymethylcellulose (CMC)

Measured: T/C

O=C(O)c1ccccc1-c1c2ccc(=O)c(O)c-2oc2c(O)c(O)ccc12
inactive: dose: 10.0 mg/kg/injection, schedule: Q04DX003 (ip), vehicle: other 99 % of control | dose: 20.0 mg/kg/injection, schedule: Q04DX003 (ip), vehicle: other 94 % of control | dose: 40.0 mg/kg/injection, schedule: Q04DX003 (ip), vehicle: other 98 % of control | dose: 50.0 mg/kg/injection, schedule: Q04DX003 (ip), vehicle: other 112 % of control | dose: 80.0 mg/kg/injection, schedule: Q04DX003 (ip), vehicle: other 89 % of control | dose: 100.0 mg/kg/injection, schedule: Q04DX003 (ip), vehicle: other 104 % of control | dose: 200.0 mg/kg/injection, schedule: Q04DX003 (ip), vehicle: other 124 % of control

COc1cccc(OC)c1C#N
inactive: [1] 95 % of control | [2] 96 % of control | [3] 98 % of control | dose: 200.0 mg/kg/injection, schedule: Q01DX009 (ip), vehicle: Klucel (hydroxypropylcellulose) (HPC) 95 % of control | [4] 98 % of control

CN(C)CCCC1(O)c2ccccc2Sc2cc(Cl)ccc21 (stereo not drawn)
inactive: dose: 25.0 mg/kg/injection, schedule: Q01DX009 (ip), vehicle: Klucel (hydroxypropylcellulose) (HPC) 91 % of control | dose: 25.0 mg/kg/injection, schedule: Q04DX002 (ip), vehicle: Klucel (hydroxypropylcellulose) (HPC) 96 % of control | [1] 91 % of control | dose: 50.0 mg/kg/injection, schedule: Q04DX002 (ip), vehicle: Klucel (hydroxypropylcellulose) (HPC) 99 % of control | [2] 100 % of control | [5] 101 % of control | dose: 150.0 mg/kg/injection, schedule: Q01DX009 (ip), vehicle: Klucel (hydroxypropylcellulose) (HPC) 97 % of control | dose: 225.0 mg/kg/injection, schedule: Q01DX009 (ip), vehicle: Klucel (hydroxypropylcellulose) (HPC) 90 % of control

Cc1ccc(/C=N/N=C(N)N)cc1
inactive: dose: 15.0 mg/kg/injection, schedule: Q01DX Z (ip), vehicle: saline 104 % of control | dose: 30.0 mg/kg/injection, schedule: Q01DX Z (ip), vehicle: saline 98 % of control | dose: 30.0 mg/kg/injection, schedule: Q01DX Z (oral), vehicle: saline 99 % of control | dose: 60.0 mg/kg/injection, schedule: Q01DX Z (ip), vehicle: saline 96 % of control | dose: 60.0 mg/kg/injection, schedule: Q01DX Z (oral), vehicle: saline 94 % of control | dose: 120.0 mg/kg/injection, schedule: Q01DX Z (oral), vehicle: saline 97 % of control | dose: 240.0 mg/kg/injection, schedule: Q01DX Z (oral), vehicle: saline 100 % of control

C[P+]1(CCc2ccc(Cl)cc2)CC(Br)C(Br)C1 (stereo not drawn)
inactive: dose: 100.0 mg/kg/injection, schedule: Q01DX001 (ip), vehicle: Klucel (hydroxypropylcellulose) (HPC) 104 % of control

CCCCNc1nc(N)nc(N)c1N=Nc1ccc(Cl)cc1
inactive: [6] 101 % of control | [7] 96 % of control | [8] 98 % of control

Cc1cc(=O)oc2cc(O)ccc12
inactive: [3] 100 % of control | [4] 98 % of control

CSc1ccc(NC(=O)C2CCCCC2C(=O)O)cc1 (stereo not drawn)
inactive: [5] 92 % of control | dose: 200.0 mg/kg/injection, schedule: Q04DX002 (ip), vehicle: Klucel (hydroxypropylcellulose) (HPC) 111 % of control | dose: 400.0 mg/kg/injection, schedule: Q04DX002 (ip), vehicle: Klucel (hydroxypropylcellulose) (HPC) 96 % of control

COc1ncnc2c1ncn2-c1cccc(C)c1
inactive: [9] 104 % of control | [6] 98 % of control | [7] 104 % of control | [8] 104 % of control

C=CC[n+]1ccccc1Br
inactive: dose: 62.0 mg/kg/injection, schedule: Q01DX015 (ip), vehicle: water 102 % of control | dose: 125.0 mg/kg/injection, schedule: Q01DX015 (ip), vehicle: water 106 % of control

C1=CC2OC1c1ccccc12
inactive: [9] 95 % of control | [6] 92 % of control | [7] 106 % of control | [8] 97 % of control

CSc1ccc(NC(=O)Oc2ccccc2C(=O)OCc2ccccc2)cc1
inactive: dose: 100.0 mg/kg/injection, schedule: Q01DX009 (ip), vehicle: gum acacia 95 % of control | dose: 200.0 mg/kg/injection, schedule: Q01DX009 (ip), vehicle: gum acacia 100 % of control | dose: 400.0 mg/kg/injection, schedule: Q01DX009 (ip), vehicle: gum acacia 102 % of control

O=C(CCCCC(=O)N(CCO)CCO)N(CCO)CCO
inactive: dose: 100.0 mg/kg/injection, schedule: Q04DX003 (ip), vehicle: saline 102 % of control | dose: 200.0 mg/kg/injection, schedule: Q04DX003 (ip), vehicle: saline 100 % of control | dose: 400.0 mg/kg/injection, schedule: Q04DX003 (ip), vehicle: saline 102 % of control

CCCCCCC(=O)C(O)C(O)C(=O)CCCCCCCC(=O)O (stereo not drawn)
inactive: dose: 100.0 mg/kg/injection, schedule: Q04DX002 (ip), vehicle: other 91 % of control | dose: 200.0 mg/kg/injection, schedule: Q04DX002 (ip), vehicle: other 98 % of control | dose: 400.0 mg/kg/injection, schedule: Q04DX002 (ip), vehicle: other 102 % of control

COC(=O)c1ccc2c(c1)OCO2
inactive: dose: 100.0 mg/kg/injection, schedule: Q01DX001 (ip), vehicle: saline with Tween-80 100 % of control | dose: 100.0 mg/kg/injection, schedule: Q01DX009 (ip), vehicle: saline sonified 94 % of control | dose: 200.0 mg/kg/injection, schedule: Q01DX001 (ip), vehicle: saline with Tween-80 103 % of control | dose: 200.0 mg/kg/injection, schedule: Q01DX009 (ip), vehicle: saline sonified 100 % of control | dose: 400.0 mg/kg/injection, schedule: Q01DX001 (ip), vehicle: saline with Tween-80 95 % of control | dose: 400.0 mg/kg/injection, schedule: Q01DX009 (ip), vehicle: saline sonified 102 % of control

NC(N)=N/N=C/c1cccc([N+](=O)[O-])c1
inactive: dose: 15.0 mg/kg/injection, schedule: Q01DX Z (ip), vehicle: carboxymethylcellulose (CMC) 98 % of control | dose: 30.0 mg/kg/injection, schedule: Q01DX Z (ip), vehicle: carboxymethylcellulose (CMC) 93 % of control | dose: 60.0 mg/kg/injection, schedule: Q01DX Z (ip), vehicle: carboxymethylcellulose (CMC) 90 % of control

CCCCNC(C)[C@]1(O)Cc2c(O)c3c(c(O)c2[C@@H](OC2CC(N)C(O)C(C)O2)C1)C(=O)c1c(OC)cccc1C3=O (stereo partly drawn)
inactive: dose: 1.56 mg/kg/injection, schedule: Q01DX009 (ip), vehicle: water 104 % of control | dose: 3.13 mg/kg/injection, schedule: Q01DX009 (ip), vehicle: water 119 % of control | dose: 6.25 mg/kg/injection, schedule: Q01DX009 (ip), vehicle: water 117 % of control

Cc1ccc(S(=O)(=O)OC23CCC(C)(CC2)C2(C3)OCCO2)cc1
inactive: dose: 100.0 mg/kg/injection, schedule: Q04DX002 (ip), vehicle: saline 95 % of control | dose: 200.0 mg/kg/injection, schedule: Q04DX002 (ip), vehicle: saline 98 % of control | dose: 400.0 mg/kg/injection, schedule: Q04DX002 (ip), vehicle: saline 98 % of control

Cc1ccc(S(=O)(=O)N/N=C2\CCCC3CC23C)cc1 (stereo not drawn)
inactive: dose: 75.0 mg/kg/injection, schedule: Q04DX002 (ip), vehicle: Klucel (hydroxypropylcellulose) (HPC) 93 % of control | dose: 150.0 mg/kg/injection, schedule: Q04DX002 (ip), vehicle: Klucel (hydroxypropylcellulose) (HPC) 93 % of control | dose: 300.0 mg/kg/injection, schedule: Q04DX002 (ip), vehicle: Klucel (hydroxypropylcellulose) (HPC) 104 % of control
